Results taken from patent US20240018146A1, “COMPOSITIONS AND METHODS OF USING THE SAME FOR TREATMENT OF NEURODEGENERATIVE AND MITOCHONDRIAL DISEASE” (MITOKININ, INC., priority 2020, published 2024).
Read-outs that look alike come from different tables or passages of the source.

Legend:
Type in all cases: cell-based
HeLa MKYP cells [1] = assay: Human mitophagy assay (HeLa mKeima assay, FACS); conditions: read-out: Mitophagy induction EC50
In short: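 HeLa cells carrying the pH-sensitive mtKeima tag incubated 16 h with compound at several concentrations, then 1 uM FCCP/oligomycin for 6 h. FACS detects mitochondria in lysosomes through the Keima emission shift, quantified as percentage of cells in mitophagy.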

[2] = Mitotoxicity / Mitotox safety margin (therapeutic window)
HeLa MKYP cells [3] = assay: Cell death measured by DAPI staining, with 1 μM FCCP/oligomycin or no toxin (no FO)
In short: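 HeLa MKYP cells were treated with compounds alongside 1 μM FCCP/oligomycin or no toxin for 6 or 6.5 h. Cell death was scored by DAPI staining, with H2O2 treatment as the death control.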

Compound	EC50 (HeLa MKYP cells [1]; Homo sapiens, HeLa) [nM]	Mito-Safety Index (highest safe dose/EC50) [2]	Highest safe dose (μM) (mitotox or cytotox) [2] [µM]	Highest safe dose (cytotoxicity; no FO; safe means DAPI+ <20%) (HeLa MKYP cells [3]) [µM]	Max % death with 1 μM FO (HeLa MKYP cells [3]) [%]	EC50 (HeLa MKYP cells [1]) [nM]
FC(F)(F)c1cc2c(NC3c4ccccc4OCC3N3C[C@@H]4COC[C@H]4C3)ncnc2[nH]1 (stereo partly shown) [EP-0040677]	320	77.08	25.0	25.0	11.1	
C[C@@H]1CN([C@H]2COc3ccccc3[C@@H]2Nc2ncnc3[nH]c(C4CC4)cc23)C[C@H](C)O1 [EP-0040944]	1220	20.51	25.0	25.0	6.3	
COC[C@@H]1CCN([C@H]2COc3ccccc3[C@@H]2Nc2ncnc3[nH]c(C(F)(F)F)cc23)C1 (single isomer, unassigned) [EP-0041071]		47.29	3.3	25.0	12.6	70
C[C@@H]1CN([C@H]2COc3cc(F)ccc3[C@@H]2Nc2ncnc3[nH]c(C(F)(F)F)cc23)C[C@H](C)O1 [EP-0040946]	> 25000		25.0		4.8	
FC(F)(F)c1cc2c(N[C@@H]3c4ccccc4OC[C@H]3C3CCOCC3)ncnc2[nH]1 (single isomer, unassigned) [EP-0040700]	110	41.37	4.7	25.0	14.1	
C[C@@H]1CN([C@@H]2COc3ccccc3[C@H]2Nc2ncnc3[nH]c(C(F)(F)F)cc23)CCO1 [EP-0040956]	190	52.10	9.7	25.0	24.7	
C[C@H]1CN([C@@H]2COc3cc(F)ccc3[C@H]2Nc2ncnc3[nH]c(C4CC4)cc23)CCO1 [EP-0041125]	160	45.69	7.4	25.0	9.6	
C[C@@H]1CN([C@@H]2COc3cc(F)ccc3[C@H]2Nc2ncnc3[nH]c(C4CC4)cc23)C[C@H](C)O1 [EP-0040949]	10	114.83	1.2	25.0	21.1	
Fc1ccc2c(c1)OC[C@H](N1C[C@H]3COC[C@H]3C1)[C@H]2Nc1ncnc2[nH]c(C3CC3)cc12 (single isomer, unassigned) [EP-0040328]		84.78	16.0	25.0	16.0	190
C[C@H]1CN([C@@H]2COc3ccccc3[C@H]2Nc2ncnc3[nH]c(C(F)(F)F)cc23)CCO1 [EP-0040980]	380	50.83	19.4	19.4	14.7	
C[C@H]1CN([C@H]2CCc3ccccc3[C@@H]2Nc2ncnc3[nH]c(C4CC4)cc23)CCO1 (single isomer, unassigned) [EP-0040511]	70	53.66	3.5	25.0	13.1	
c1ccc2c(c1)CC[C@H](C1CCOCC1)[C@H]2Nc1ncnc2[nH]c(C3CC3)cc12 (single isomer, unassigned) [EP-0040582]	80	68.01	5.1	25.0	17.7	
